{"source": "patent US8080657B2", "about": "“Compounds of reverse turn mimetics and the use thereof” (Choongwae Pharma Corporation, priority 2008, dated 2011)"}
{"tested_on": "MV-4-11 cells", "test": "Cell growth inhibition assay on AML cancer cells (CellTiter 96)", "type": "cell-based", "details": "Homo sapiens, MV4-11; MV-4-11 cells, 72 hours; read-out: GI50, cell growth inhibition of MV-4-11 AML cancer cells", "method": "(§1) The lower GI50 value means the higher inhibition activity.\n(§2) Cell Growth Inhibition Activity on AML Cancer Cells (Cell Growth Inhibition Assay)\n(§3) Cell growth Inhibition assay was performed to investigate the rate of inhibition of cell proliferation by the test compounds. MV-4-11 (human, Acute Myeloid Leukemia cell line) cells were cultured in Iscove's modified Dulbecco's medium (IMDM) including 10% fetal bovine serum (FBS), 1× penicillin/streptomycin (10,000 units/ml Penicillin, […] Streptomycin in 0.85% NaCl). MV-4-11 cells were harvested with IMDM medium and 5×10^4 cells/well were transferred to each well of 96 well culture plates (Nunc, #167008). The test compounds were treated with the serial dilution and duplicated for each concentration. For the serial dilution, the test compounds were repeatedly diluted with the same volume of media onto 96-well assay block (costar, #3956). After the dilution, each compound was added to each well. The background absorbance was also measured during the test compounds treatment by adding the IMDM media in replacement of test compound to the negative control plate. The plates were incubated for 3 days (72 hours) at 37° C. in the humidified incubator containing 5% CO2. On the last day, 20 μL of CellTiter 96 Aqueous One Solution (Promega #G3581) was added to the culture in each well and the plates were incubated for a few hours at 37° C. in the humidified incubator containing 5% CO2. After the incubation, the absorbance of each cell was measured at 490 nm using an EnVision (Perkinelmer, USA). The GI50 values were calculated using a Prism 3.0 program.", "units": {"GI50": "nM"}}
{"smiles": "C=CCN1CC(=O)N2[C@@H](Cc3ccc(O)cc3)C(=O)N(Cc3cccc(C(=O)NCCOC)c3)C[C@@H]2N1C(=O)NCc1ccccc1", "note": "[Compound B]", "GI50": 188}
{"tested_on": "MV-4-11 cells", "test": "Cell growth inhibition assay on AML cancer cells (CellTiter 96)", "type": "cell-based", "details": "Homo sapiens, MV4-11; cell growth inhibition on AML cancer cells, MV-4-11; read-out: MV-4-11, GI50", "method": "as §1, §2, §3", "units": {"GI50": "nM"}}
{"smiles": "C=CCN1CC(=O)N2[C@@H](Cc3ccc(O)cc3)C(=O)N(Cc3cccc(C(=O)N4CCCCC4)c3)C[C@@H]2N1C(=O)NCc1ccccc1", "note": "[compound 26]", "GI50": 780}
{"smiles": "C=CCN1CC(=O)N2[C@@H](Cc3ccc(O)cc3)C(=O)N(Cc3cccc(-c4cccnc4OC)c3)C[C@@H]2N1C(=O)NCc1ccccc1", "note": "[compound 22]", "GI50": 740}
{"smiles": "C=CCN1CC(=O)N2[C@@H](Cc3ccc(O)cc3)C(=O)N(Cc3cccc(C(=O)N(C)C)c3)C[C@@H]2N1C(=O)NCc1ccccc1", "note": "[compound 30]", "GI50": 820}
{"smiles": "C=CCN1CC(=O)N2[C@@H](Cc3ccc(O)cc3)C(=O)N(Cc3cccc4c(C(C)=O)c[nH]c34)C[C@@H]2N1C(=O)NCc1ccccc1", "note": "[compound 6]", "GI50": 40}
{"smiles": "C=CCN1CC(=O)N2[C@@H](Cc3ccc(O)cc3)C(=O)N(Cc3cccc(C(C)(C)C)c3OC)C[C@@H]2N1C(=O)NCc1ccccc1", "note": "[compound 16]", "GI50": 630}
{"smiles": "C=CCN1CC(=O)N2[C@@H](Cc3ccc(O)cc3)C(=O)N(Cc3ccccc3SC)C[C@@H]2N1C(=O)NCc1ccccc1", "note": "[compound 14]", "GI50": 160}
{"smiles": "C=CCN1CC(=O)N2[C@@H](Cc3ccc(O)cc3)C(=O)N(Cc3cccc(C(=O)NCC4CC4)c3)C[C@@H]2N1C(=O)NCc1ccccc1", "note": "[compound 40]", "GI50": 270}
{"smiles": "C=CCN1CC(=O)N2[C@@H](Cc3ccc(O)cc3)C(=O)N(Cc3cccc(C(N)=O)n3)C[C@@H]2N1C(=O)NCc1ccccc1", "note": "[compound 43]", "GI50": 310}
{"smiles": "C=CCN1CC(=O)N2[C@@H](Cc3ccc(O)cc3)C(=O)N(Cc3cccc(-c4ncc[nH]4)c3)C[C@@H]2N1C(=O)NCc1ccccc1", "note": "[compound 35]", "GI50": 1120}
{"smiles": "C=CCN1CC(=O)N2[C@@H](Cc3ccc(O)cc3)C(=O)N(Cc3cccc(C(=O)NOC)c3)C[C@@H]2N1C(=O)NCc1ccccc1", "note": "[compound 18]", "GI50": 360}
{"smiles": "C=CCN1CC(=O)N2[C@@H](Cc3ccc(O)cc3)C(=O)N(Cc3ccc(F)c(Br)c3)C[C@@H]2N1C(=O)NCc1ccccc1", "note": "[compound 21]", "GI50": 300}
{"smiles": "C=CCN1CC(=O)N2[C@@H](Cc3ccc(O)cc3)C(=O)N(Cc3cccc(OC)c3OC)C[C@@H]2N1C(=O)NCc1ccccc1", "note": "[compound 15]", "GI50": 2140}
{"smiles": "C=CCN1CC(=O)N2[C@@H](Cc3ccc(O)cc3)C(=O)N(Cc3cccc(C(=O)NNC(=O)OC(C)(C)C)c3)C[C@@H]2N1C(=O)NCc1ccccc1", "note": "[compound 23]", "GI50": 960}
{"smiles": "C=CCN1CC(=O)N2[C@@H](Cc3ccc(O)cc3)C(=O)N(Cc3cccc(Cl)c3N(C)C)C[C@@H]2N1C(=O)NCc1ccccc1", "note": "[compound 34]", "GI50": 1250}
{"smiles": "C=CCOc1ccc(CN2C[C@H]3N(C(=O)CN(CC=C)N3C(=O)NCc3ccccc3)[C@@H](Cc3ccc(O)cc3)C2=O)cc1", "note": "[compound 12]", "GI50": 2990}
{"smiles": "C=CCN1CC(=O)N2[C@@H](Cc3ccc(O)cc3)C(=O)N(Cc3cccc(C(N)=O)c3)C[C@@H]2N1C(=O)NCc1ccccc1", "note": "[compound 17]", "GI50": 360}
{"smiles": "C=CCN1CC(=O)N2[C@@H](Cc3ccc(O)cc3)C(=O)N(Cc3cccc(C(=O)NCCC)c3)C[C@@H]2N1C(=O)NCc1ccccc1", "note": "[compound 37]", "GI50": 240}
{"smiles": "C=CCN1CC(=O)N2[C@@H](Cc3ccc(O)cc3)C(=O)N(Cc3ccc(OC)c(-c4ccncc4)c3)C[C@@H]2N1C(=O)NCc1ccccc1", "note": "[compound 20]", "GI50": 2240}
{"smiles": "C=CCN1CC(=O)N2[C@@H](Cc3ccc(O)cc3)C(=O)N(Cc3cccc(C(=O)N(C)C)n3)C[C@@H]2N1C(=O)NCc1ccccc1", "note": "[compound 45]", "GI50": 2790}
{"smiles": "C=CCN1CC(=O)N2[C@@H](Cc3ccc(O)cc3)C(=O)N(Cc3cccc(C(=O)NC)n3)C[C@@H]2N1C(=O)NCc1ccccc1", "note": "[compound 44]", "GI50": 550}
{"smiles": "C=CCN1CC(=O)N2[C@@H](Cc3ccc(O)cc3)C(=O)N(Cc3ccccc3N3CCCC3)C[C@@H]2N1C(=O)NCc1ccccc1", "note": "[compound 13]", "GI50": 2010}
{"smiles": "C=CCN1CC(=O)N2[C@@H](Cc3ccc(O)cc3)C(=O)N(Cc3ccccc3-n3cnnn3)C[C@@H]2N1C(=O)NCc1ccccc1", "note": "[compound 28]", "GI50": 1350}
{"smiles": "C=CCN1CC(=O)N2[C@@H](Cc3ccc(O)cc3)C(=O)N(Cc3cccc(C(=O)NCC4CCCCC4)c3)C[C@@H]2N1C(=O)NCc1ccccc1", "note": "[compound 39]", "GI50": 960}
{"smiles": "C=CCN1CC(=O)N2[C@@H](Cc3ccc(O)cc3)C(=O)N(Cc3cccc(NC(=O)OC)c3)C[C@@H]2N1C(=O)NCc1ccccc1", "note": "[compound 5]", "GI50": 50}
{"smiles": "C=CCN1CC(=O)N2[C@@H](Cc3ccc(O)cc3)C(=O)N(Cc3cccc(C(=O)Nc4cc[nH]n4)c3)C[C@@H]2N1C(=O)NCc1ccccc1", "note": "[compound 41]", "GI50": 1560}
{"smiles": "C=CCN1CC(=O)N2[C@@H](Cc3ccc(O)cc3)C(=O)N(Cc3cccc(C(=O)NN)c3)C[C@@H]2N1C(=O)NCc1ccccc1", "note": "[compound 24]", "GI50": 2030}
{"smiles": "C=CCN1CC(=O)N2[C@@H](Cc3ccc(O)cc3)C(=O)N(Cc3cccc(C(=O)NC)c3)C[C@@H]2N1C(=O)NCc1ccccc1", "note": "[compound 29]", "GI50": 390}
{"smiles": "C=CCN1CC(=O)N2[C@@H](Cc3ccc(O)cc3)C(=O)N(Cc3cccc(C(=O)NCCO)c3)C[C@@H]2N1C(=O)NCc1ccccc1", "note": "[compound 19]", "GI50": 450}
{"smiles": "C=CCN1CC(=O)N2[C@@H](Cc3ccc(O)cc3)C(=O)N(Cc3ccc(OC)cc3F)C[C@@H]2N1C(=O)NCc1ccccc1", "note": "[compound 10]", "GI50": 1320}
{"smiles": "C=CCN1CC(=O)N2[C@@H](Cc3ccc(O)cc3)C(=O)N(Cc3csc4ccccc34)C[C@@H]2N1C(=O)NCc1ccccc1", "note": "[compound 3]", "GI50": 180}
{"smiles": "C=CCN1CC(=O)N2[C@@H](Cc3ccc(O)cc3)C(=O)N(Cc3cccc(C(=O)NCCCOCCCC)c3)C[C@@H]2N1C(=O)NCc1ccccc1", "note": "[compound 33]", "GI50": 650}
{"smiles": "C=CCN1CC(=O)N2[C@@H](Cc3ccc(O)cc3)C(=O)N(Cc3cccc(C(=O)NCCOC)c3)C[C@@H]2N1C(=O)NCc1ccccc1", "note": "[compound 38]", "GI50": 180}
{"smiles": "C=CCN1CC(=O)N2[C@@H](Cc3ccc(O)cc3)C(=O)N(Cc3cccc(C(=O)N4CCCC4)c3)C[C@@H]2N1C(=O)NCc1ccccc1", "note": "[compound 27]", "GI50": 1110}
{"smiles": "C=CCN1CC(=O)N2[C@@H](Cc3ccc(O)cc3)C(=O)N(Cc3ccc(F)c(-c4cccnc4)c3)C[C@@H]2N1C(=O)NCc1ccccc1", "note": "[compound 25]", "GI50": 240}
{"smiles": "C=CCN1CC(=O)N2[C@@H](Cc3ccc(O)cc3)C(=O)N(Cc3ccc(OC)c(Cl)c3)C[C@@H]2N1C(=O)NCc1ccccc1", "note": "[compound 11]", "GI50": 1970}
{"smiles": "C=CCN1CC(=O)N2[C@@H](Cc3ccc(O)cc3)C(=O)N(Cc3cccc4c3ncn4CC(N)=O)C[C@@H]2N1C(=O)NCc1ccccc1", "note": "[compound 1]", "GI50": 190}
{"smiles": "C=CCN1CC(=O)N2[C@@H](Cc3ccc(O)cc3)C(=O)N(Cc3ccc(CP(=O)(O)O)cc3)C[C@@H]2N1C(=O)NCc1ccccc1", "note": "[compound 32]", "GI50": "> 50000"}
{"smiles": "C=CCN1CC(=O)N2[C@@H](Cc3ccc(O)cc3)C(=O)N(Cc3cccc(C(=O)OCC)n3)C[C@@H]2N1C(=O)NCc1ccccc1", "note": "[compound 42]", "GI50": 640}
{"smiles": "C=CCN1CC(=O)N2[C@@H](Cc3ccc(O)cc3)C(=O)N(Cc3cccc4c3OC(F)(F)O4)C[C@@H]2N1C(=O)NCc1ccccc1", "note": "[compound 2]", "GI50": 600}
{"smiles": "C=CCN1CC(=O)N2[C@@H](Cc3ccc(O)cc3)C(=O)N(Cc3cccc(C(N)=O)c3[N+](=O)[O-])C[C@@H]2N1C(=O)NCc1ccccc1", "note": "[compound 31]", "GI50": 5750}
{"molecular_target": "T1, cDNA-expressed human hepatic CYP3A4 (Homo sapiens, UniProt P08684)", "T1 construct": "purchased BD Gentest 456202", "T1 sequence (P08684 whole entry)": "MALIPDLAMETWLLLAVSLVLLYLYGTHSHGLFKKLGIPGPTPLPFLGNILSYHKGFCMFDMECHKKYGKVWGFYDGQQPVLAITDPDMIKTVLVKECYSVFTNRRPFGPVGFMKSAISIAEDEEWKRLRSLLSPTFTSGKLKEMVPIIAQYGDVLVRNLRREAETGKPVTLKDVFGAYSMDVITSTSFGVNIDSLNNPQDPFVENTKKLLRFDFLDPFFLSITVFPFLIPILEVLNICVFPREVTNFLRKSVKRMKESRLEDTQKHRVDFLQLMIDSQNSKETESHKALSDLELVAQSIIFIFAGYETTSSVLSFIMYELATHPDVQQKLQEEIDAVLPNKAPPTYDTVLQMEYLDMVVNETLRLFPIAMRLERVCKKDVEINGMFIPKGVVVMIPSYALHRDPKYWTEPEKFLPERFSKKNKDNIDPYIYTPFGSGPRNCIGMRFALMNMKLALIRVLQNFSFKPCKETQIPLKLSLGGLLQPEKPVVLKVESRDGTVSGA", "test": "P450 CYP3A4 inhibitory activity screening (BFC substrate, fluorescence)", "type": "biochemical", "details": "P450 CYP3A4 inhibitory activity screening, fluorescent assay; read-out: CYP3A4 inhibition, IC50 (μM) fluorescent assay", "method": "(§4) P450 CYP3A4 Inhibitory Activity Screening\n(§5) Assay was conducted in a 200 μL volume in 96-well microtiter plates using cDNA-expressed human hepatic CYP3A4 (supersome, BD Gentest™ #456202). 7-Benzyloxy-4-trifluoromethyl-coumarin (BFC) was used as a substrate for CYP3A4. Test articles and substrate BFC were dissolved in 100% acetonitrile. The final volume of acetonitrile in the incubation mixture was less than 1% (volume/volume). Potassium phosphate buffer (pH 7.4, final concentration 0.1 M), MgCl2 (final concentration 8.3 mM), EDTA (final concentration 1.67 mM), a test article stock solution, a CYP3A4 supersome and NADPH (final concentration 0.25 mM) were added to each well. The reaction was initiated by the addition of substrate (BFC, final concentration 30 µM) after a 10 min pre-incubation at 37° C. After 10 min incubation at 37° C., the reaction was terminated by the addition of 75 μL of acetonitrile:0.5 M Tris-base=4:1 (volume/volume). Thereafter, Fluorescent signal was measured using a fluorometer. BFC metabolite, 7-hydroxy-4-trifluoromethyl-coumarin, was measured using an excitation wavelength of 409 nm and an emission wavelength of 530 nm.", "units": {"IC50": "µM"}}
{"smiles": "C=CCN1CC(=O)N2[C@@H](Cc3ccc(O)cc3)C(=O)N(Cc3cccc(C(=O)NCCOC)c3)C[C@@H]2N1C(=O)NCc1ccccc1", "note": "[compound 38]", "IC50": 34.6}
{"molecular_target": "T1, cDNA-expressed human hepatic CYP3A4", "test": "P450 CYP3A4 inhibitory activity screening (BFC substrate, fluorescence)", "type": "biochemical", "details": "human CYP3A4 supersome, substrate BFC, 10 min incubation at 37° C.; read-out: IC50 values of Compounds against CYP3A4 activity", "method": "as §4, §5", "units": {"IC50": "µM"}}
{"smiles": "C=CCN1CC(=O)N2[C@@H](Cc3ccc(O)cc3)C(=O)N(Cc3cccc(C(=O)NCCOC)c3)C[C@@H]2N1C(=O)NCc1ccccc1", "note": "[Compound B]", "IC50": 34.6}
{"tested_on": "Wnt signaling", "test": "TopFlash reporter gene bioassay in SW480 cells", "type": "cell-based", "details": "Homo sapiens, SW480, TopFlash reporter gene assay, inhibition of Wnt signaling; read-out: RGA, IC50 (μM) TopF", "units": {"IC50": "µM"}}
{"smiles": "C=CCN1CC(=O)N2[C@@H](Cc3ccc(O)cc3)C(=O)N(Cc3cccc(NC(=O)OC)c3)C[C@@H]2N1C(=O)NCc1ccccc1", "note": "[compound 5]", "IC50": "0.16 ± 0.08"}
